Laboratory results published in the supplement of paper PMC9013687.
± gives the standard deviation of the averaged measurements.

Key:
Danio rerio embryo [1] = assay: EC50 Curvature_Increase; details: exposure time: 2 dpf
Description: (§1)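 Zebrafish embryos (UFZ-OBI strain) were exposed from 2 hpf for 48 h (2 dpf) or 96 h (4 dpf) at 28 °C; spontaneous tail coiling was scored at 25 hpf. Morphological features from automated image analysis (FishInspector), heart rate and locomotor response were fitted with drc models. Quantal endpoints were dichotomised at 2.5 SD from controls and fitted with a log-logistic model; heart rate, pigmentation and STC were normalised to the replicate control mean. Betamethasone was tested as betamethasone dipropionate, diflorasone as diflorasone diacetate.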

Danio rerio embryo [2] = assay: EC20 LMR dark; higher = less potent; details: exposure time: 4 dpf
Description: as §1

Danio rerio embryo [3] = assay: EC10 Eye-jaw distance_Decrease; higher = less potent; details: exposure time: 4 dpf
Description: as §1

Danio rerio embryo [4] = assay: EC20 Eye-jaw distance_Decrease; higher = less potent; details: exposure time: 4 dpf
Description: as §1

Danio rerio embryo [5] = details: exposure time: 4 dpf
Description: as §1

Danio rerio embryo [6] = assay: EC10 Otolith-eye distance_Decrease; higher = less potent; details: exposure time: 4 dpf
Description: as §1

Danio rerio embryo [7] = test system: Danio rerio embryo
Description: as §1

Danio rerio embryo [8] = assay: EC20 Body length_Decrease; higher = less potent; details: exposure time: 2 dpf
Description: as §1

Danio rerio embryo [9] = assay: EC20 Bladder size_Decrease; higher = less potent; details: exposure time: 4 dpf
Description: as §1

Danio rerio embryo [10] = assay: EC10 Bladder size_Decrease; higher = less potent; details: exposure time: 4 dpf
Description: as §1

Danio rerio embryo [11] = assay: EC20 Curvature_Increase; higher = less potent; details: exposure time: 2 dpf
Description: as §1

Danio rerio embryo [12] = assay: EC50 Eye-jaw distance_Decrease; details: exposure time: 4 dpf
Description: as §1

Danio rerio embryo [13] = assay: EC10 LMR dark; higher = less potent; details: exposure time: 4 dpf
Description: as §1

Danio rerio embryo [14] = assay: EC50 Otolith-eye distance_Decrease; details: exposure time: 4 dpf
Description: as §1

Danio rerio embryo [15] = assay: EC10 Curvature_Increase; higher = less potent; details: exposure time: 2 dpf
Description: as §1

Danio rerio embryo [16] = assay: EC50 Yolk sac size_Increase; details: exposure time: 4 dpf
Description: as §1

Danio rerio embryo [17] = assay: EC20 Otolith-eye distance_Decrease; higher = less potent; details: exposure time: 4 dpf
Description: as §1

Danio rerio embryo [18] = assay: EC20 Pericard size_Increase; higher = less potent; details: exposure time: 4 dpf
Description: as §1

Danio rerio embryo [19] = assay: EC50 Bladder size_Decrease; details: exposure time: 4 dpf
Description: as §1

Danio rerio embryo [20] = assay: EC10 Body length_Decrease; higher = less potent; details: exposure time: 2 dpf
Description: as §1

Danio rerio embryo [21] = assay: EC20 Any effect; higher = less potent; details: exposure time: 4 dpf
Description: as §1

Danio rerio embryo [22] = assay: EC50 Pericard size_Increase; details: exposure time: 4 dpf
Description: as §1

Danio rerio embryo [23] = assay: EC10 Pericard size_Increase; higher = less potent; details: exposure time: 4 dpf
Description: as §1

Danio rerio embryo [24] = assay: EC10 Yolk sac size_Increase; higher = less potent; details: exposure time: 4 dpf
Description: as §1

Danio rerio embryo [25] = assay: EC50 Body length_Decrease; details: exposure time: 2 dpf
Description: as §1

Danio rerio embryo [26] = assay: EC20 Yolk sac size_Increase; higher = less potent; details: exposure time: 4 dpf
Description: as §1

Danio rerio embryo [27] = assay: spontaneous tail coiling frequency (coils/min/embryo); higher = more spontaneous movement; details: 25 hpf
Description: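 Spontaneous tail coilings of zebrafish embryos exposed from 2 hpf were recorded at 24-25 hpf in 1-min videos and detected by a KNIME workflow from grey-value variance. Betamethasone was tested as the dipropionate, diflorasone as the diacetate.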

Danio rerio embryo [28] = assay: EC10 Any effect; higher = less potent; details: exposure time: 4 dpf
Description: as §1

`CCCNCC(O)COc1ccccc1C(=O)CCc1ccccc1` (stereo not drawn) [Propafenone] was tested, and the “EC50 Curvature Increase” value (Danio rerio embryo [1]) was 131 µM, the “EC20 LMR dark” value (Danio rerio embryo [2]) was 4.28 µM and the “EC10 Eye-jaw distance Decrease” value (Danio rerio embryo [3]) was 17.8 µM. The “EC20 Eye-jaw distance Decrease” value (Danio rerio embryo [4]) was 18.8 µM, the “EC50 LMR dark” value (Danio rerio embryo [5]) was 11.2 µM and the “EC10 Otolith-eye distance Decrease” value (Danio rerio embryo [6]) was 33 µM. The “EC50 Any effect” value (Danio rerio embryo [7]; exposure time: 4 dpf) was 20.6 µM, the “EC50 LMR ligth increase” value (Danio rerio embryo [7]; exposure time: 4 dpf) was 19.6 µM and the “EC50 Pigmentation increase” value (Danio rerio embryo [7]; exposure time: 4 dpf) was 34.7 µM. The “EC50 STC decrease” value (Danio rerio embryo [7]; exposure time: 25 h) was 47.5 µM, the “EC20 Body length Decrease” value (Danio rerio embryo [8]) was 34.1 µM and the “EC20 Bladder size Decrease” value (Danio rerio embryo [9]) was 7.09 µM. The “EC10 Bladder size Decrease” value (Danio rerio embryo [10]) was 6.71 µM, the “EC20 Curvature Increase” value (Danio rerio embryo [11]) was 49 µM and the “EC50 Eye-jaw distance Decrease” value (Danio rerio embryo [12]) was 20.6 µM. The “EC10 LMR dark” value (Danio rerio embryo [13]) was 2.43 µM, the “EC50 Otolith-eye distance Decrease” value (Danio rerio embryo [14]) was 35.5 µM and the “EC10 Curvature Increase” value (Danio rerio embryo [15]) was 27.6 µM. For the same molecule, the “EC50 Yolk sac size Increase” value (Danio rerio embryo [16]) was 20.5 µM, the “EC20 Otolith-eye distance Decrease” value (Danio rerio embryo [17]) was 33.9 µM and the “EC20 Pericard size Increase” value (Danio rerio embryo [18]) was 18.8 µM. For the same molecule, the “EC50 Bladder size Decrease” value (Danio rerio embryo [19]) was 7.8 µM, the “EC10 Body length Decrease” value (Danio rerio embryo [20]) was 20.8 µM and the “EC20 Any effect” value (Danio rerio embryo [21]) was 18.9 µM. For the same molecule, the “EC50 Pericard size Increase” value (Danio rerio embryo [22]) was 20.6 µM, the “EC10 Pericard size Increase” value (Danio rerio embryo [23]) was 17.8 µM and the “EC10 Yolk sac size Increase” value (Danio rerio embryo [24]) was 17.3 µM. The “EC50 Body length Decrease” value (Danio rerio embryo [25]) was 79.5 µM, the “EC20 Yolk sac size Increase” value (Danio rerio embryo [26]) was 18.4 µM and the “spontaneous tail coiling frequency” value (Danio rerio embryo [27]; 8.8 µM) was 1.68. The “spontaneous tail coiling frequency” value (Danio rerio embryo [27]; 13.2 µM) was 1.86, the “spontaneous tail coiling frequency” value (Danio rerio embryo [27]; 19.8 µM) was 1.81 ± 0.55 and the “spontaneous tail coiling frequency” value (Danio rerio embryo [27]; 29.6 µM) was 0.98. The “spontaneous tail coiling frequency” value (Danio rerio embryo [27]; 44.5 µM) was 1.23 ± 1.2, the “spontaneous tail coiling frequency” value (Danio rerio embryo [27]; 66.7 µM) was 1 and the “spontaneous tail coiling frequency” value (Danio rerio embryo [27]; 100 µM) was 0.422 ± 0.49. The “spontaneous tail coiling frequency” value (Danio rerio embryo [27]; 142.9 µM) was 0.49 and the “EC10 Any effect” value (Danio rerio embryo [28]) was 17.9 µM.
